Results reported in patent publication US5387684A, “Isoindazole compound” (The Green Cross Corporation, priority 1992, dated 1995).
pIC50: −log10 of the molar value. Where a name gives a salt, the structure may show the parent alone.

biological target: T1, angiotensin II receptor (Rattus norvegicus, UniProt P25095); experiment: Inhibition of binding of angiotensin II to rat smooth muscle cells (125I-AII); conditions: ^125 I-Tyr^4-angiotensin II, smooth muscle cells from rat aorta, room temperature, 1 hour; read-out: inhibitory action (IC50) on the binding of angiotensin II to the receptor
T1 sequence (P25095 1-359): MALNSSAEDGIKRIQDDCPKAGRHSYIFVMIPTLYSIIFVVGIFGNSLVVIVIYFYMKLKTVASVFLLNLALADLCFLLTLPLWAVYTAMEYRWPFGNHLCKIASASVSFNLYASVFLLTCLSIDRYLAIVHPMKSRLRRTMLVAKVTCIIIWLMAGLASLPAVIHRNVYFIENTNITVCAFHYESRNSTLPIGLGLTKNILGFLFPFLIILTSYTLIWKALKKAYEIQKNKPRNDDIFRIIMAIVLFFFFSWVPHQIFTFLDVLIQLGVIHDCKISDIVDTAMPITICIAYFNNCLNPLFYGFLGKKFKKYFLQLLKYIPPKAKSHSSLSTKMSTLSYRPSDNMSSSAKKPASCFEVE

pIC50 | Compound
8.70 | CCc1nc2c(C)cc(C)nc2n1Cc1ccc2nn(-c3ccccc3C(=O)O)c(Br)c2c1
8.37 | CCCCc1nc(Cl)c(CO)n1Cc1ccc2nn(-c3ccccc3C(=O)O)c(Br)c2c1 [Example 4, 1-[3-bromo-2-(2-carboxyphenyl)-2H-indazol-5-yl]methyl-2-butyl-4-chloro-5-(hydroxymethyl)-1H-imidazole]
7.40 | CCCCc1nc(Cl)c(CO)n1Cc1ccc2nn(-c3ccccc3C(=O)O)cc2c1 [Example 5, 2-butyl-4-chloro-1-[2-(2-carboxyphenyl)-2H-indazol-5-yl]methyl-5-(hydroxymethyl)-1H-imidazole]
7.72 | CCCCc1nc(Cl)c(C=O)n1Cc1ccc2nn(-c3ccccc3C(=O)O)c(Br)c2c1 [Example 6, 2-butyl-4-chloro-1-[3-bromo-2-(2-carboxyphenyl)-2H-indazol-5-yl]methyl-1H-imidazole-5-carbaldehyde]
6.89 | CCCCc1nc(Cl)c(C=O)n1Cc1ccc2nn(-c3ccccc3C(=O)O)cc2c1 [Example 7, 2-butyl-4-chloro-1-[2-(2-carboxyphenyl)-2H-indazol-5-yl]methyl-1H-imidazole-5-carbaldehyde]
8.60 | CCCCc1nc(Cl)c(C(=O)O)n1Cc1ccc2nn(-c3ccccc3C(=O)O)c(Br)c2c1 [Example 9, disodium 1-[3-bromo-2-(2-carboxyphenyl)-2H-indazol-5-yl]methyl-2-butyl-4-chloro-1H-imidazole-5-carboxylate]
6.14 | CCCCc1nc(C(=O)O)c(Cl)n1Cc1ccc2nn(-c3ccccc3C(=O)O)c(Br)c2c1 [Example 10, disodium 2-butyl-5-chloro-1-[3-bromo-2-(2-carboxyphenyl)-2H-indazol-5-yl]methyl-1H-imidazole-4-carboxylate]
7.22 | CCCCc1nc(Cl)c(C=O)n1Cc1ccc2nn(-c3ccccc3-c3nnn[nH]3)c(Br)c2c1 [Example 12, 1-{[3-bromo-2-[2-(1H-tetrazol-5-yl)phenyl]-2H-indazol-5-yl]methyl}-2-butyl-4-chloro-1H-imidazole-5-carbaldehyde]
8.60 | CCCCc1nc(Cl)c(CO)n1Cc1ccc2nn(-c3ccccc3-c3nnn[nH]3)c(Br)c2c1 [Example 14, 1-{[3-bromo-2-[2-(1H-tetrazol-5-yl)phenyl]-2H-indazol-5-yl]methyl}-2-butyl-4-chloro-5-(hydroxymethyl)-1H-imidazole]
8.85 | CCCc1nc2c(C)ccnc2n1Cc1ccc2nn(-c3ccccc3C(=O)O)c(Br)c2c1 [Example 20, 3-[3-bromo-2-(2-carboxyphenyl)-2H-indazol-5-yl]-methyl-7-methyl-2-propyl-3H-imidazo[4,5-b]pyridine]
8.96 | CCc1nc2c(C)cc(C)nc2n1Cc1ccc2nn(-c3ccccc3-c3nnn[nH]3)c(Br)c2c1 [Example 21, 3-{[3-bromo-2-[2-(1H-tetrazol-5-yl)phenyl]-2H-indazol-5-yl]methyl}-2-ethyl-5,7-dimethyl-3H-imidazo[4,5-b]pyridine]
8.74 | CCCc1nc2c(C)ccnc2n1Cc1ccc2nn(-c3ccccc3-c3nnn[nH]3)c(Br)c2c1 [Example 22, 3-{[3-bromo-2-[2-(1H-tetrazol-5-yl)phenyl]-2H-indazol-5-yl]methyl}-7-methyl-2-propyl-3H-imidazo[4,5-b]pyridine]
8.51 | CCCCc1nc2cccnc2n1Cc1ccc2nn(-c3ccccc3-c3nnn[nH]3)c(Br)c2c1 [Example 23, 3-{[3-bromo-2-[2-(1H-tetrazol-5-yl)phenyl]-2H-indazol-5-yl]methyl}-2-butyl-3H-imidazo[4,5-b]pyridine]
9.10 | CCc1nc2c(C)cc(C)nc2n1Cc1ccc2nn(-c3ccccc3-c3nnn[nH]3)c(Cl)c2c1 [Example 24, 3-{[3-chloro-2-[2-(1H-tetrazol-5-yl)phenyl]-2H-indazol-5-yl]methyl}-2-ethyl-5,7-dimethyl-3H-imidazo[4,5-b]pyridine]
9.14 | CCc1nc2c(C)cc(C)nc2n1Cc1ccc2nn(-c3cccc(Cl)c3-c3nnn[nH]3)c(Br)c2c1 [Example 25, 3-{[3-bromo-2-[3-chloro-2-(1H-tetrazol-5-yl)-phenyl]-2H-indazol-5-yl]methyl}-2-ethyl-5,7-dimethyl-3H-imidazo[4,5-b]pyridine]
8.17 | CCCCc1nc2cccnc2n1Cc1ccc2nn(-c3ccccc3C(=O)O)c(Br)c2c1 [sodium salt]
